# Results reported in PubChem BioAssay (NCI).
#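 1) Cells in 96-well plates. 2) Compound, 48 h, 5 concentrations. 3) Linear interpolation between surrounding doses. 4) Unreached endpoint = highest concentration. GI50 = concentration required for 50% inhibition of growth. TGI: concentration producing complete growth inhibition.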
# Assays:
# Experiment in all cases: growth of human tumour cells (NCI), 48 h
# [1] = test system: HCT-116 colon
# [2] = test system: SK-MEL-5 melanoma
# [3] = test system: SR leukemia
# [4] = test system: OVCAR-4 ovarian
# [5] = test system: SNB-75 CNS
# [6] = test system: SK-MEL-28 melanoma
# [7] = test system: CCRF-CEM leukemia
# [8] = test system: NCI-H522 lung
# [9] = test system: DU-145 prostate
# [10] = test system: NCI-H23 lung
# [11] = test system: SNB-19 CNS
# [12] = test system: LOX IMVI melanoma
# [13] = test system: CAKI-1 renal
# [14] = test system: KM12 colon
# [15] = test system: SW-620 colon
# [16] = test system: U251 CNS
# [17] = test system: SF-539 CNS
# [18] = test system: OVCAR-8 ovarian
# [19] = test system: M14 melanoma
# [20] = test system: NCI/ADR-RES ovarian
# [21] = test system: SN12C renal
# [22] = test system: MCF7 breast
# [23] = test system: RXF 393 renal
# [24] = test system: IGROV1 ovarian
# [25] = test system: UACC-257 melanoma
# [26] = test system: UO-31 renal
# [27] = test system: ACHN renal
# [28] = test system: SK-OV-3 ovarian
# [29] = test system: HCT-15 colon
# [30] = test system: A498 renal
# [31] = test system: NCI-H226 lung
# [32] = test system: MDA-MB-435
# [33] = test system: NCI-H460 lung
# [34] = test system: MOLT-4 leukemia
# [35] = test system: HS 578T breast
# [36] = test system: MDA-MB-231 breast
# [37] = test system: MALME-3M melanoma
# [38] = test system: COLO 205 colon
# [39] = test system: OVCAR-5 ovarian
# [40] = test system: A549 NSCLC
# [41] = test system: OVCAR-3 ovarian
# [42] = test system: SK-MEL-2 melanoma
# [43] = test system: BT-549 breast
# [44] = test system: SF-295 CNS
# [45] = test system: PC-3 prostate
# [46] = test system: T-47D breast
# [47] = test system: HL-60(TB) leukemia
# [48] = test system: HOP-62 NSCLC
# [49] = test system: HT29 colon
# [50] = test system: UACC-62 melanoma
# [51] = test system: HCC-2998 colon
# [52] = test system: K-562 leukemia
# [53] = test system: 786-0 renal
# [54] = test system: SF-268 CNS
# [55] = test system: RPMI-8226 leukemia
# [56] = test system: EKVX NSCLC
# [57] = test system: TK-10 renal
# [58] = test system: HOP-92 NSCLC
structure (smiles),measurement,setting,value
Cc1cc(=O)[nH]c(N/N=C/c2ccccc2O)n1,GI50,[1],2.46 µM
same,TGI,[1],> 100 µM
same,GI50,[2],4.19 µM
same,TGI,[2],19.1 µM
same,GI50,[3],6.22 µM
same,TGI,[3],> 100 µM
same,GI50,[4],2.25 µM
same,TGI,[4],> 100 µM
same,GI50,[5],71.5 µM
same,TGI,[5],> 100 µM
same,GI50,[6],25.3 µM
same,TGI,[6],> 100 µM
same,GI50,[7],4.02 µM
same,TGI,[7],> 100 µM
same,GI50,[8],7.67 µM
same,TGI,[8],> 100 µM
same,GI50,[9],15.3 µM
same,TGI,[9],> 100 µM
same,GI50,[10],4.21 µM
same,TGI,[10],> 100 µM
same,GI50,[11],24.5 µM
same,TGI,[11],> 100 µM
same,GI50,[12],8.02 µM
same,TGI,[12],> 100 µM
same,GI50,[13],5.19 µM
same,TGI,[13],> 100 µM
same,GI50,[14],18.4 µM
same,TGI,[14],> 100 µM
same,GI50,[15],4.6 µM
same,TGI,[15],> 100 µM
same,GI50,[16],6.01 µM
same,TGI,[16],> 100 µM
same,GI50,[17],7.06 µM
same,TGI,[17],> 100 µM
same,GI50,[18],3.1 µM
same,TGI,[18],> 100 µM
same,GI50,[19],3.56 µM
same,TGI,[19],26.3 µM
same,GI50,[20],3.52 µM
same,TGI,[20],> 100 µM
same,GI50,[21],18.7 µM
same,TGI,[21],> 100 µM
same,GI50,[22],0.463 µM
same,TGI,[22],> 100 µM
same,GI50,[23],12.8 µM
same,TGI,[23],92.6 µM
same,GI50,[24],3.77 µM
same,TGI,[24],> 100 µM
same,GI50,[25],3.67 µM
same,TGI,[25],34.7 µM
same,GI50,[26],5.3 µM
same,TGI,[26],> 100 µM
same,GI50,[27],7.39 µM
same,TGI,[27],> 100 µM
same,GI50,[28],6.88 µM
same,TGI,[28],> 100 µM
same,GI50,[29],4.63 µM
same,TGI,[29],> 100 µM
same,GI50,[30],20.5 µM
same,TGI,[30],93.2 µM
same,GI50,[31],24.3 µM
same,TGI,[31],> 100 µM
same,GI50,[32],18.7 µM
same,TGI,[32],> 100 µM
same,GI50,[33],4.72 µM
same,TGI,[33],> 100 µM
same,GI50,[34],4.95 µM
same,TGI,[34],> 100 µM
same,GI50,[35],> 100 µM
same,TGI,[35],> 100 µM
same,GI50,[36],6.05 µM
same,TGI,[36],> 100 µM
same,GI50,[37],4.49 µM
same,TGI,[37],> 100 µM
same,GI50,[38],3.81 µM
same,TGI,[38],> 100 µM
same,GI50,[39],7.42 µM
same,TGI,[39],> 100 µM
same,GI50,[40],4.4 µM
same,TGI,[40],> 100 µM
same,GI50,[41],4.15 µM
same,TGI,[41],> 100 µM
same,GI50,[42],> 100 µM
same,TGI,[42],> 100 µM
same,GI50,[43],25.3 µM
same,TGI,[43],> 100 µM
same,GI50,[44],3.96 µM
same,TGI,[44],> 100 µM
same,GI50,[45],4.95 µM
same,TGI,[45],> 100 µM
same,GI50,[46],3.74 µM
same,TGI,[46],> 100 µM
same,GI50,[47],4.26 µM
same,TGI,[47],50.1 µM
same,GI50,[48],19 µM
same,TGI,[48],> 100 µM
same,GI50,[49],5.72 µM
same,TGI,[49],> 100 µM
same,GI50,[50],9.92 µM
same,TGI,[50],51 µM
same,GI50,[51],12.3 µM
same,TGI,[51],> 100 µM
same,GI50,[52],5.82 µM
same,TGI,[52],> 100 µM
same,GI50,[53],12.7 µM
same,TGI,[53],> 100 µM
same,GI50,[54],7.75 µM
same,TGI,[54],> 100 µM
same,GI50,[55],5.61 µM
same,TGI,[55],> 100 µM
COc1ccc2nc(C)cc(Sc3nc4ccccc4s3)c2c1,GI50,[1],1.14 µM
same,TGI,[1],3.15 µM
same,GI50,[2],2.88 µM
same,TGI,[2],13.5 µM
same,GI50,[3],0.432 µM
same,TGI,[3],2.46 µM
same,GI50,[4],0.993 µM
same,TGI,[4],> 21.2 µM
same,GI50,[5],0.885 µM
same,TGI,[5],5.12 µM
same,GI50,[6],2.45 µM
same,TGI,[6],9.89 µM
same,GI50,[7],0.377 µM
same,TGI,[7],2.65 µM
same,GI50,[8],1.31 µM
same,TGI,[8],3.15 µM
same,GI50,[9],2.2 µM
same,TGI,[9],7.55 µM
same,GI50,[10],1.78 µM
same,TGI,[10],7.56 µM
same,GI50,[11],3.46 µM
same,TGI,[11],28.8 µM
same,GI50,[12],1.19 µM
same,TGI,[12],3.37 µM
same,GI50,[56],1.61 µM
same,TGI,[56],8 µM
same,TGI,[13],0.626 µM
same,GI50,[14],1.9 µM
same,TGI,[14],5.07 µM
same,GI50,[15],1.51 µM
same,TGI,[15],2.98 µM
same,GI50,[16],1 µM
same,TGI,[16],3.06 µM
same,GI50,[17],1.73 µM
same,TGI,[17],4.04 µM
same,GI50,[57],1.4 µM
same,TGI,[57],5.47 µM
same,GI50,[18],2.66 µM
same,TGI,[18],10.9 µM
same,GI50,[19],1.92 µM
same,TGI,[19],9.34 µM
same,GI50,[20],1.43 µM
same,TGI,[20],4.42 µM
same,GI50,[21],1.7 µM
same,TGI,[21],7.06 µM
same,GI50,[22],1.45 µM
same,TGI,[22],11.1 µM
same,GI50,[23],2.63 µM
same,TGI,[23],8.19 µM
same,GI50,[24],2.2 µM
same,TGI,[24],13.9 µM
same,GI50,[25],4.25 µM
same,TGI,[25],25.5 µM
same,GI50,[26],0.385 µM
same,TGI,[26],5.43 µM
same,GI50,[27],1.21 µM
same,TGI,[27],5.77 µM
same,GI50,[28],1.19 µM
same,TGI,[28],4.75 µM
same,GI50,[29],0.953 µM
same,TGI,[29],3.73 µM
same,GI50,[58],0.475 µM
same,TGI,[58],6.25 µM
same,GI50,[30],1.37 µM
same,TGI,[30],4.87 µM
same,GI50,[31],0.728 µM
same,TGI,[31],4.1 µM
same,GI50,[32],1.76 µM
same,TGI,[32],5.39 µM
same,GI50,[33],1.89 µM
same,TGI,[33],5.35 µM
same,GI50,[34],1.25 µM
same,TGI,[34],7.92 µM
same,GI50,[35],0.923 µM
same,TGI,[35],3.57 µM
same,GI50,[36],1.05 µM
same,TGI,[36],5.93 µM
same,GI50,[37],0.426 µM
same,TGI,[37],11.9 µM
same,GI50,[38],0.816 µM
same,TGI,[38],2.58 µM
same,GI50,[39],1.79 µM
same,TGI,[39],8.19 µM
same,GI50,[40],2.21 µM
same,TGI,[40],14.2 µM
same,GI50,[41],1.47 µM
same,TGI,[41],3.3 µM
same,GI50,[43],1.28 µM
same,TGI,[43],4.45 µM
same,GI50,[44],2.48 µM
same,TGI,[44],13.2 µM
same,GI50,[45],0.288 µM
same,TGI,[45],3 µM
same,GI50,[46],0.881 µM
same,TGI,[46],11 µM
same,GI50,[47],0.533 µM
same,TGI,[47],2.63 µM
same,GI50,[48],1.26 µM
same,TGI,[48],6.06 µM
same,GI50,[49],1.89 µM
same,TGI,[49],7.71 µM
same,GI50,[50],0.717 µM
same,TGI,[50],7.51 µM
same,GI50,[51],0.0938 µM
same,TGI,[51],2.54 µM
same,GI50,[52],1.21 µM
same,GI50,[53],0.562 µM
same,TGI,[53],3.28 µM
same,GI50,[54],2.02 µM
same,TGI,[54],5.51 µM
same,GI50,[55],0.362 µM
same,TGI,[55],2.16 µM
